Data on four molecules can be found in patent publication US12285426B2, “Combination serotonin specific reuptake inhibitor and serotonin 1A receptor partial agonist for reducing L-DOPA-induced dyskinesia” (The Research Foundation for The State University of new York, priority 2018, dated 2025).

Test [1] addresses T1, 5-HT1A receptor expressed in SF9 cells (Homo sapiens, UniProt P08908).
T1 construct: expressed in transfected cells; host or cells: SF9 cells
T1 sequence (P08908 1-422): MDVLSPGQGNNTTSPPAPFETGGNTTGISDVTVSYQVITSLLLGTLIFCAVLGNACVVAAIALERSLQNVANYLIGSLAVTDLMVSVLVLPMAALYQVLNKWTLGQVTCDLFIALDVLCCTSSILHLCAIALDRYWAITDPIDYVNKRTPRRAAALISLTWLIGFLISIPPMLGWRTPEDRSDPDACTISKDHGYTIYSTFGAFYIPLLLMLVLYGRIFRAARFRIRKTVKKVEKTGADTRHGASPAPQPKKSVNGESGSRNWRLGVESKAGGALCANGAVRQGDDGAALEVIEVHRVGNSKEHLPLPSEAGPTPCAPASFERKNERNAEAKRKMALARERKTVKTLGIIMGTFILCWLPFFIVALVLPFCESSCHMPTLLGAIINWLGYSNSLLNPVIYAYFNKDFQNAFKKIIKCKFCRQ
The settings on record: cited from earlier work.

The test system of another test is DRN 5-HT neurons. As to the kind of experiment: Example 3: in vivo single-unit recording of DRN 5-HT neurons. The conditions noted are these: 8-OH-DPAT 1 μg/kg i.v.; WAY-100635 100 μg/kg i.v. Set-up: species or system rat. The source says:
Burr holes (˜1 mm in diameter) were drilled in the skull overlying the DRN of non-lesioned rats. Prior to experimentation all animals were anesthetized with urethane (1.5 g/kgi.p.) and placed in a stereotaxic apparatus. Bipolar stimulating/recording electrodes were implanted in the frontal cortex and DRN on the right side using a micromanipulator (coordinates from Bregma: AP: 3.2 mm; ML: 0.8 mm lateral; DV: 4.4 mm ventral (frontal cortex) or AP: 7.8 mm; ML 3.1 mm; DV: 7.5 mm with the manipulator angled 30 degrees toward Bregma) as previously described [Chakroborty 2017].
Electrophysiology: Recording microelectrodes were manufactured from 2.0 mm OD borosilicate glass capillary tubing and filled with sodium chloride (2M) solution. […] Temperature was monitored using a rectal probe and maintained at 37 C.° using a heating pad (VI-20F, Fintronics Inc., Orange, CT). […] Once isolated, recordings consisted of basal (pre-drug), saline vehicle, and drug-treatment-(see below) induced changes in spike activity recorded in a series of 3 min duration epochs.
All compounds and physiological 0.9% saline were prepared daily and administered intravenously (i.v.) through the lateral tail vein to enable rapid examination of potential acute effects of vehicle or drug on DRN neuronal activity. […] DRN 5-HT neuron activity was recorded prior to and immediately following drug administration as described above.

In test [2] the test system is L-DOPA-primed 6-OHDA-lesioned rats; 5-HT1BR. As to the kind of experiment: Experiment 3: AIMs with 5-HT1BR antagonist NAS-181. It is filed as in vivo, rat. The conditions noted are these: VZD 10 mg/kg, NAS-181 3.0 mg/kg, LD 6 mg/kg s.c.
Procedure: All 6-OHDA-lesioned rats (n=17) were tested on the FAS prior to treatment regimens to establish baseline motor performance. Three-weeks post-surgery, all rats were primed with L-DOPA (6 mg/kg, s.c.) for 14 days.
Beginning 10 min post-treatment, a trained and blinded observer assigned a severity score (0-4) to each of the ALO AIMs based on 1 min ratings every 10 min for 3 h: 0, not present; 1, present from 1-29 s; 2, present 30-59s; 3, present all 60 s, but interruptible by a cylinder tap; 4, present 60 s and not interruptible by a cylinder tap.
Test [3] deals with 6-OHDA-lesioned rats, L-DOPA-induced dyskinesias. As to the kind of experiment: Example 2: LIDs scoring in unilateral 6-OHDA-lesioned rats. The settings on record: vilazodone 10 mg/kg or escitalopram 12.5 mg/kg + L-DOPA 5 mg/kg, 2 weeks. It is filed as in vivo, rat. Here is the method: 6-OHDA-induced dopaminergic lesions: Adult male Sprague-Dawley rats were randomly assigned to groups receiving either a 6-OHDA or sham lesion. […] [[…] 2019]. […] Rats were treated for 5 consecutive days/week (Mon-Fri), for 2 weeks. […] All rats were evaluated three times per week for the presence of L-DOPA-induced dyskinesias (LIDs) (Wed-Fri) and once for the stepping test (Tue). […] Scores were given over 1 min epochs and classified as axial, limb, orolingual and locomotive. […] The severity of each LID was scored using a standard scale. Each dyskinetic behavior was given an intensity and frequency score, which were then multiplied. The average sum of the products of each LID was determined in each animal.

For test [4], the system named is 6-OHDA-lesioned rats, forelimb akinesia. As to the kind of experiment: Example 2: stepping test. In kind it is in vivo, rat. The settings on record: 60 minutes post L-DOPA.
Procedure: 6-OHDA-induced dopaminergic lesions: Adult male Sprague-Dawley rats were randomly assigned to groups receiving either a 6-OHDA or sham lesion. All rats received desipramine (10 mg/kg i.p.) 30 min prior to surgery to prevent the lesioning of norepinephrine neurons by 6-OHDA. A single injection of 6-OHDA (8 μg of 6-OHDA free base in 4 p of 0.1% ascorbic acid) was delivered into the right medial forebrain bundle (coordinates taken from bregma: −4.3 mm AP, 1.6 mm ML, −8.3 mm DV). The same experimental treatment was performed for the sham-operated rats using vehicle (4 μl of 0.1% ascorbic acid). A standard stepping test was used to evaluate the effectiveness of the 6-OHDA lesion.
Rats were treated for 5 consecutive days/week (Mon-Fri), for 2 weeks. On the second day of each week, stepping tests were performed prior to drug administration, and 60 minutes post L-DOPA treatment.
Test [5] concerns L-DOPA-primed 6-OHDA-lesioned rats; 5-HT1AR. The conditions noted are these: VZD 10 mg/kg, WAY 0.5 mg/kg, LD 6 mg/kg s.c.

As to `Br.CCCN(CCC)C1CCc2cccc(O)c2C1` (centres unmarked) [8-OH-DPAT, 8-hydroxy-2-(dipropylamino) tetralin hydrobromide], the “increase of [35S]GTPyS binding compared to vehicle” value in test [1] is “eightfold”. Also, in the test with DRN 5-HT neurons, the “spontaneous firing of DRN 5-HT neuron” value is reported as “suppressed the spontaneous firing of a DRN neuron”.

Take `C1=C(CN2CCOCC2)COc2c1cccc2OC[C@H]1CNCCO1.CS(=O)(=O)O` [NAS-181, (R)-(+)-2-(3-morpholinomethyl-2H-chromen-8-yl) oxymethyl-morpholine methane-sulfonate]: the “ALO AIMs” value in test [2] is listed as “did not significantly alter AIMs or their reduction by Vilazodone”.

Regarding `CN(C)CCC[C@@]1(c2ccc(F)cc2)OCc2cc(C#N)ccc21` [Escitalopram], the LIDs severity result in test [3] is reported as “significantly reduced LIDs severity”. In addition, in test [4], the “forelimb akinesia / L-DOPA therapeutic (prokinetic) efficacy” value is reported as “affected L-DOPA therapeutic efficacy”.

Regarding `COc1ccccc1N1CCN(CCN(C(=O)C2CCCCC2)c2ccccn2)CC1.O=C(O)/C=C\C(=O)O` [WAY100635, N-[2-[4(2-Methoxyphenyl)-1-piperazinyl]ethyl]-N-2-pyridinylcyclohexanecarboxamide maleate salt], the “spontaneous firing of DRN 5-HT neuron” value in the test on DRN 5-HT neurons is “return to baseline firing”. In addition, the LIDs severity entry in test [3] is given as “reverses the beneficial effects of vilazodone on LIDs”. For the same molecule, the “summed ALO AIMs” value in test [5] is reported as “partially reversed the anti-dyskinetic efficacy of Vilazodone”.
